Test results reported in patent US20070179161A1, “Pyrazolopyrimidine compounds and their use in medicine” (VERNALIS (CAMBRIDGE) LIMITED., priority 2003, published 2007).

Assays:
[1] = target: CDK-2 enzyme, complexed with cyclin A (Homo sapiens, UniProt P24941); assay: CDK2 enzyme inhibition assay (33P phosphorylation of peptide […], filter plate); format: biochemical; conditions: CDK-2/cyclin A, 0.1 mM ATP, 40 min at 30° C.
Summary of the method: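 Cyclin A–complexed CDK2 (0.4 U/ml) incubated with inhibitor, 0.03 mM peptide, 0.1 mM ATP plus 33P-γ-ATP in HEPES pH 7.5, 7.5 mM Mg acetate, 0.1 mg/ml BSA, 40 min at 30 °C. Stopped with phosphoric acid; phosphorylated peptide captured on filter plates and counted by scintillation.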

GST-Chk1 enzyme = target: T1, GST-Chk1 enzyme (Homo sapiens, UniProt O14757); assay: Chk1 kinase inhibition assay (33P phosphorylation of Chktide, filter plate); format: biochemical; conditions: 0.01 mM ATP, 11 nM GST-Chk1, 40 minutes at 30° C.; read-out: Chk1 IC50
T1 sequence (O14757 1-476): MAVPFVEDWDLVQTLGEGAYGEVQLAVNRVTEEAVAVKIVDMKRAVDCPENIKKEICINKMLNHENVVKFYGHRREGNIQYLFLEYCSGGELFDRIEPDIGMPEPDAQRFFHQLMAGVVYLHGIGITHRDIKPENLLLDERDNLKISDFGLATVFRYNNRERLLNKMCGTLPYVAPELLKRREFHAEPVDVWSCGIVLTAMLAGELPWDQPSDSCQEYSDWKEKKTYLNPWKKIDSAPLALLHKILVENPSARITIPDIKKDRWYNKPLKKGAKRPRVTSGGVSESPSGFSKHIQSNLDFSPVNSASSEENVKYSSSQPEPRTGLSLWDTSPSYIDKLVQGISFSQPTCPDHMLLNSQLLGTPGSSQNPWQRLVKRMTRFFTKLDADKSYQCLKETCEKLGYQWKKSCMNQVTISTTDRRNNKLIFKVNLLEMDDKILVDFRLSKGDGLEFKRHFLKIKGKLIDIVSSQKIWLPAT
Summary of the method: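 Inhibitor and enzyme reacted 40 min at 30 °C, then stopped with 50 mM phosphoric acid. Phosphorylated peptide captured on filter plates and quantified by scintillation counting.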

PDK1 enzyme = target: T2, PDK1 enzyme (Homo sapiens, UniProt O15530); assay: PDK1 kinase inhibition assay (33P phosphorylation of synthetic peptide, filter plate); format: biochemical; conditions: 0.01 mM ATP, 60 min at 30° C.; read-out: PDK1 IC50
T2 sequence (O15530 1-556): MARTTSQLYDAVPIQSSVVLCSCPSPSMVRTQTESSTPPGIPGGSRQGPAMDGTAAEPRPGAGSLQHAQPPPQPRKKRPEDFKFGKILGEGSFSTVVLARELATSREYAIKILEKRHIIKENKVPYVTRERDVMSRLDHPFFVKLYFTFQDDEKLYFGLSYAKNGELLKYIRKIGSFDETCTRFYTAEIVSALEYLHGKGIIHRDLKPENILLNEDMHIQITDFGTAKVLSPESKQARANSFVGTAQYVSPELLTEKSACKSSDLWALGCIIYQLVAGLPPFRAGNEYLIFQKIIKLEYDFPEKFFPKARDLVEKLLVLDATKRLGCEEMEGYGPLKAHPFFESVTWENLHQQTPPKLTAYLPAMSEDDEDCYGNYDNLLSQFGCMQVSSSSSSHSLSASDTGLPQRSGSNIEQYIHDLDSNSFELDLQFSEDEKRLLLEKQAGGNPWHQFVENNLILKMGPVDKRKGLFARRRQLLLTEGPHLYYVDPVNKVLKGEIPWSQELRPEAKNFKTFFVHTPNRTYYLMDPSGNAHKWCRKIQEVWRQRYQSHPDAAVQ
Summary of the method: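 PDK1 and inhibitor incubated 60 min at 30° C with 0.01 mM ATP plus 33P-γ-ATP, 0.075 mM peptide, 7.5 mM Mg acetate, 0.1 mg/ml BSA in 0.05 M Tris.HCl pH 7.5. Stopped with phosphoric acid; phosphorylated peptide captured on filter plate and counted by scintillation.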

[2] = Cell growth inhibition assay: cytotoxicity by sulforhodamine B (SRB) assay; format: cell-based; conditions: 96 h; SRB assay, 4 days with drug; cell line not named; read-out: GI50
Description: B. Cell Growth Inhibition Assay:
• 1) Determine cell number by haemocytometer. • 2) Using an 8 channel multipipettor, add 160 μl of the cell suspension ([…] or 2×10^4 cells/ml) to each well of a 96-well microtitre plate. • 3) Incubate overnight at 37° C. in a CO2 incubator. Day 2 • 4) Stock solutions of drugs are prepared, and serial dilutions of each drug are performed in medium to give final concentrations in wells. • 5) Using a multipipettor, 40 μl of drug (at 5× final concentration) is added to quadruplicate wells. • 6) Control wells are at either side of the 96 well plates, where 40 μl of medium is added. • 7) Incubate plates in CO2 incubator for 4 days Day 6 • 8) Tip off medium into sink and immerse plate slowly into 10% ice cold trichloroacetic acid (TCA). Leave for about 30 mins on ice. • 9) Wash plates three times in tap water by immersing the plates into baths of tap water and tipping it off. • 10) Dry in incubator. • 11) Add 100 μl of 0.4% SRB in 1% acetic acid to each well (except the last row right hand)of the 96 well plate, this is the 0% control, ie no drug, no stain. The first row will be the 100% control with no drug, but with stain). Leave for 5 mins. • 12) Wash off unbound SRB stain with four washes of 1% acetic acid. • 13) Dry plates in incubator. • 14) Solubilise SRB using 100 μl of 10 mM Tris base and put plates on plate shaker for 5 mins. • 15) Determine absorbance at 540 nm using a plate reader. Calculate mean absorbance for quadruplicate wells and express as a percentage of value for control, untreated wells.
Plot % absorbance values versus log drug concentration and determine the IC50.

SMILES	IC50 [1]	IC50 (GST-Chk1 enzyme)	IC50 (PDK1 enzyme)	GI50 [2]
N[C@H]1CC[C@H](Nc2cc(Nc3ccc(Oc4ccccc4)cc3)n3ncc(Br)c3n2)CC1 [Example 181]	101 nM	1000 nM	109000 nM	90 nM
CSc1cnn2c(Nc3ccc(S(=O)(=O)N(C)C)cc3)cc(N[C@H]3CC[C@H](N)CC3)nc12 [Example 197]	55 nM			580 nM
CN(C)S(=O)(=O)c1ccc(Nc2cc(O[C@H]3CCNC3)nc3c(Cl)cnn23)cc1 [Example 196]	360 nM	4190 nM		1000 nM
CCNc1cc(Nc2ccc(S(=O)(=O)N(C)C)cc2)n2ncc(C(C)C)c2n1 [Example 108]	3140 nM	> 200000 nM	> 200000 nM	
CC(C)c1cnn2c(Nc3ccc(S(=O)(=O)N(C)C)cc3)cc(C(=O)NCCN(C)C)nc12 [Example 122]	3170 nM	> 200000 nM	> 200000 nM	
O=S(=O)(Nc1ccccn1)c1ccc(Nc2cc(Cl)nc3ccnn23)cc1 [Example 10]	1630 nM	> 200000 nM	> 200000 nM	
CS(=O)(=O)c1ccc(Nc2cc(N[C@H]3CC[C@@H](N)CC3)nc3c(Br)cnn23)cc1 [Example 164]	222 nM	250 nM	4700 nM	
CN(C)S(=O)(=O)c1ccc(Nc2cc(N[C@H]3CC[C@H](N)CC3)nc3c(-c4ccccc4)cnn23)cc1 [Example 163]	10000 nM	1530 nM	6000 nM	
O=S(=O)(c1ccc(Nc2ccnc3ccnn23)cc1)N1CCOCC1 [Example 16]	3350 nM	> 200000 nM	> 200000 nM	
CN(C)S(=O)(=O)c1ccc(Nc2cc(N[C@H]3CC[C@H](N)CC3)nc3c(C#N)cnn23)cc1 [Example 199]	7 nM	330 nM	1350 nM	
CC(C)c1cnn2c(Nc3ccc(S(=O)(=O)N(C)C)cc3)cc(NC3CCC(N)C3)nc12 (centres unmarked) [Example 150]	478 nM	2000 nM	13000 nM	
COc1cc(Nc2ccc(S(=O)(=O)N(C)C)cc2)n2ncc(C(C)C)c2n1 [Example 66]	876 nM	> 200000 nM	> 200000 nM	
CN(C)S(=O)(=O)c1ccc(Nc2cc(N[C@H]3CC[C@H](N)CC3)nc3c(C4CCCC4)cnn23)cc1 [Example 167]	4 nM	720 nM	168000 nM	
CC(C)c1cnn2c(Nc3ccc(S(=O)(=O)N(C)C)cc3)cc(C(=O)N3CCC(O)CC3)nc12 [Example 120]	594 nM	> 200000 nM	> 200000 nM	
CC(C)c1cnn2c(Nc3ccc(S(=O)(=O)NCC4CCCO4)cc3)cc(Cl)nc12 (centres unmarked) [Example 35]	191 nM	> 200000 nM	> 200000 nM	
N[C@H]1CC[C@H](Nc2cc(Nc3ccc(Oc4cncc(Cl)c4)cc3)n3ncc(Cl)c3n2)CC1 [Example 191]	18 nM			40 nM
COCCNS(=O)(=O)c1ccc(Nc2cc(Cl)nc3c(C(C)C)cnn23)cc1 [Example 36]	715 nM	> 200000 nM	> 200000 nM	
CN(C)S(=O)(=O)c1ccc(Nc2cc(Cl)nc3c(Br)cnn23)cc1 [Example 76]	128 nM	> 200000 nM	> 200000 nM	

SMILES	IC50 [1]	IC50 (GST-Chk1 enzyme)	IC50 (PDK1 enzyme)	GI50 [2]
CC(C)COc1cc(Nc2ccc(S(=O)(=O)NCCN(C)C)cc2)n2ncc(C(C)C)c2n1 [Example 90]	373 nM	5420 nM	> 200000 nM	
CC(C)COc1cc(Nc2ccc(S(=O)(=O)N(C)C)cc2)n2ncc(C(C)C)c2n1 [Example 40]	1160 nM	> 200000 nM	> 200000 nM	
CCc1cnn2c(Nc3ccc(S(C)(=O)=O)cc3)cc(OCC(C)C)nc12 [Example 44]	179 nM	> 200000 nM	79100 nM	
CC(C)COc1cc(Nc2ccc(S(=O)(=O)N(C)CCO)cc2)n2ncc(C(C)C)c2n1 [Example 42]	170 nM	> 200000 nM	> 200000 nM	
CCN(CC)c1cc(Nc2ccc(S(=O)(=O)N(C)C)cc2)n2ncc(C(C)C)c2n1 [Example 71]	655 nM	> 200000 nM	> 200000 nM	
N[C@H]1CC[C@H](Nc2cc(Nc3ccc(Sc4cccs4)cc3)n3ncc(Cl)c3n2)CC1 [Example 193]	47 nM	1470 nM	2880 nM	
CC(C)COc1cc(Nc2ccc(S(C)(=O)=O)cc2)n2ncc(C(C)C)c2n1 [Example 41]	1200 nM	> 200000 nM	> 200000 nM	
CC(C)c1cnn2c(Nc3ccc(S(C)(=O)=O)cc3)ccnc12 [Example 38]	313 nM	> 200000 nM	> 200000 nM	
CS(=O)(=O)c1ccc(Nc2cc(Cl)nc3c(Cc4ccccc4)cnn23)cc1 [Example 23]	> 200000 nM	> 200000 nM	> 200000 nM	
CC(C)c1cnn2c(Nc3ccc(S(=O)(=O)N(C)C)cc3)cc(N[C@H]3CC[C@H](N(C)C)CC3)nc12 [Example 162]	815 nM	12000 nM	5000 nM	
CC(C)c1cnn2c(Nc3ccc(S(=O)(=O)N4CCC(O)CC4)cc3)cc(Cl)nc12 [Example 33]	271 nM	> 200000 nM	> 200000 nM	
CC(C)c1cnn2c(Nc3ccc(S(=O)(=O)N(C)CCO)cc3)cc(Cl)nc12 [Example 34]	127 nM	> 200000 nM	> 200000 nM	
CN(C)CCNS(=O)(=O)c1ccc(Nc2cc(Cl)nc3c(Br)cnn23)cc1 [Example 135]	81 nM	43000 nM	> 50000 nM	
CCc1cnn2c(Nc3ccc(S(=O)(=O)N(C)C)cc3)cc(N[C@H]3CC[C@H](N)CC3)nc12 [Example 57]	69 nM	2610 nM	2440 nM	
CC(C)c1cnn2c(Nc3ccc(S(=O)(=O)N(C)CCO)cc3)cc(OCCN(C)C)nc12 [Example 39]	403 nM	80800 nM	> 200000 nM	
CC(C)c1cnn2c(Nc3ccc(S(=O)(=O)N(C)C)cc3)cc(N3CCCC(CO)C3)nc12 (centres unmarked) [Example 49]	387 nM	> 200000 nM	> 200000 nM	
CN(C)S(=O)(=O)c1ccc(Nc2cc(N[C@@H]3CCCC[C@@H]3N)nc3c(Br)cnn23)cc1 [Example 138]	565 nM	970 nM	> 50000 nM	
CC(C)c1cnn2c(Nc3ccc(S(=O)(=O)N(C)C)cc3)cc(N3CCC(C(=O)O)CC3)nc12 [Example 78]	4790 nM	> 200000 nM	> 200000 nM	
